Data from paper PMC10123570 (The Protein Journal, 2023).
Counter-ions that a name gives are not always drawn.

These molecules were tested against T1, High Temperature requirement A (LmHtrA) (Listeria monocytogenes, UniProt Q8YA67) (assay: azo-casein cleavage, spectrophotometric).
T1 sequence (Q8YA67 1-500): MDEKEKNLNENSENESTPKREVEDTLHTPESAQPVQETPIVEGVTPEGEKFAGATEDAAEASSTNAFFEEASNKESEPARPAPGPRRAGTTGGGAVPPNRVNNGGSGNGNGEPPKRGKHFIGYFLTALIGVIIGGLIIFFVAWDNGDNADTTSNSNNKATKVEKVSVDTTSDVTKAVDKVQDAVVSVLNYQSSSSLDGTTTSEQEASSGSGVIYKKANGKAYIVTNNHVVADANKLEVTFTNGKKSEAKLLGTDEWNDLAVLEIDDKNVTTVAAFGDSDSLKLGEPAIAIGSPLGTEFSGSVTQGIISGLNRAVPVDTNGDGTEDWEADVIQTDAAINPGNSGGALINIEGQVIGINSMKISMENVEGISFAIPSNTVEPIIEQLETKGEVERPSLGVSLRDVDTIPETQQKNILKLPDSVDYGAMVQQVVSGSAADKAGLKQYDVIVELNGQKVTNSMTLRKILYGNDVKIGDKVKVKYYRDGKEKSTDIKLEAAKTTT
Format: biochemical

Structure (SMILES) | IC50 [µM]
CN(C)C(=O)COC(=O)Cc1ccc(OC(=O)c2ccc(NC(=N)N)cc2)cc1 [CM, Camostat mesylate] | 152 ± 7.5
CCOC(=O)c1ccc(OC(=O)CCCCCNC(=N)N)cc1 [GM, Gabexate mesylate] | 80.6 ± 8.5
N=C(N)c1ccc2cc(OC(=O)c3ccc(N=C(N)N)cc3)ccc2c1 [NM, Nafamostat mesylate] | 6.6 ± 0.4
